Test results: ChEMBL document CHEMBL1151301, “Isolation of translactone-containing triterpenes with thrombin inhibitory activities from the leaves of Lantana camara” (J Nat Prod, 1998)

target: Prothrombin (Homo sapiens, UniProt P00734); test: Inhibition of human thrombin by fibrinogen-clot assay

Row | IC50 [nM] | Compound
1 | 50 | CC(C)=CC(=O)C[C@H]1C(=O)O[C@H]2C[C@]3(C)C4=CC[C@@H]5[C@](C)(CC[C@H]6OC(=O)[C@@]56C)[C@H]4CC[C@@]3(C)[C@@H]21
2 | 90 | CC(=O)O[C@@H]1CC[C@@]2(C)[C@@H](CC=C3[C@@H]2C[C@H](O)[C@@]2(C)[C@H]4[C@H](C[C@]32C)OC(=O)[C@@H]4CC(=O)C=C(C)C)[C@]1(C)C(=O)O
3 | 130 | CC(=O)O[C@@H]1CC[C@@]2(C)[C@@H](CC=C3[C@@H]2C[C@H](O)[C@@]2(C)[C@H]4[C@H](C[C@]32CO)OC(=O)[C@@H]4CC(=O)C=C(C)C)[C@]1(C)C(=O)O[C@@H]1O[C@H](CO)[C@@H](O)[C@H](O)[C@H]1O
4 | 70 | CC(=O)OC[C@]12C[C@@H]3OC(=O)[C@H](CC(=O)C=C(C)C)[C@H]3[C@]1(C)[C@@H](O)C[C@H]1C2=CC[C@@H]2[C@]1(C)CC[C@@H](OC(C)=O)[C@@]2(C)C(=O)O[C@@H]1O[C@H](CO)[C@@H](O)[C@H](O)[C@H]1O

Row | Compound | IC50 [nM]
5 | CC(=O)O[C@@H]1CC[C@@]2(C)[C@@H](CC=C3[C@@H]2CC[C@@]2(C)[C@H]4[C@H](C[C@]32C)OC(=O)[C@@H]4CC(=O)C=C(C)C)[C@]1(C)C(=O)O | 18
